Experimental data: patent US8952169B2 (Genentech, Inc., priority 2012, dated 2015)

Experiments:
hNav1.7 [1] = target: T1, hNav1.7 (Homo sapiens (Human), UniProt Q15858); assay: Tritiated aryl sulfonamide binding to membranes from cells expressing hNav1.7 and the β1 subunit (competitive binding); conditions: read-out: NaV1.7 395 Memb Binding (IC50)
In short: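 Competitive displacement of 100 μM [3H]-labelled tritiated aryl sulfonamide from hNav1.7/β1 membranes, 18 h at room temperature in 100 mM NaCl, 20 mM Tris HCl pH 7.4. Non-specific binding defined with 1 μM unlabelled compound. Filter-bound radioactivity measured by liquid scintillation counting.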

hNav1.7 [2] = target: T1, hNav1.7; assay: Patch voltage clamp electrophysiology (PatchXpress), HEK-293 cells, inactivated state block; format: cell-based; conditions: read-out: EP_PX 293 hNav1.7 (IC50)
[3] = membranes with hNav1.7 and β1 subunit, [3H]compound displacement, 18 h, room temperature
[4] = HEK-293 cells, β1 coexpressed, inactivated state, holding −60 mV

T1 sequence (Q15858 whole entry, looked up): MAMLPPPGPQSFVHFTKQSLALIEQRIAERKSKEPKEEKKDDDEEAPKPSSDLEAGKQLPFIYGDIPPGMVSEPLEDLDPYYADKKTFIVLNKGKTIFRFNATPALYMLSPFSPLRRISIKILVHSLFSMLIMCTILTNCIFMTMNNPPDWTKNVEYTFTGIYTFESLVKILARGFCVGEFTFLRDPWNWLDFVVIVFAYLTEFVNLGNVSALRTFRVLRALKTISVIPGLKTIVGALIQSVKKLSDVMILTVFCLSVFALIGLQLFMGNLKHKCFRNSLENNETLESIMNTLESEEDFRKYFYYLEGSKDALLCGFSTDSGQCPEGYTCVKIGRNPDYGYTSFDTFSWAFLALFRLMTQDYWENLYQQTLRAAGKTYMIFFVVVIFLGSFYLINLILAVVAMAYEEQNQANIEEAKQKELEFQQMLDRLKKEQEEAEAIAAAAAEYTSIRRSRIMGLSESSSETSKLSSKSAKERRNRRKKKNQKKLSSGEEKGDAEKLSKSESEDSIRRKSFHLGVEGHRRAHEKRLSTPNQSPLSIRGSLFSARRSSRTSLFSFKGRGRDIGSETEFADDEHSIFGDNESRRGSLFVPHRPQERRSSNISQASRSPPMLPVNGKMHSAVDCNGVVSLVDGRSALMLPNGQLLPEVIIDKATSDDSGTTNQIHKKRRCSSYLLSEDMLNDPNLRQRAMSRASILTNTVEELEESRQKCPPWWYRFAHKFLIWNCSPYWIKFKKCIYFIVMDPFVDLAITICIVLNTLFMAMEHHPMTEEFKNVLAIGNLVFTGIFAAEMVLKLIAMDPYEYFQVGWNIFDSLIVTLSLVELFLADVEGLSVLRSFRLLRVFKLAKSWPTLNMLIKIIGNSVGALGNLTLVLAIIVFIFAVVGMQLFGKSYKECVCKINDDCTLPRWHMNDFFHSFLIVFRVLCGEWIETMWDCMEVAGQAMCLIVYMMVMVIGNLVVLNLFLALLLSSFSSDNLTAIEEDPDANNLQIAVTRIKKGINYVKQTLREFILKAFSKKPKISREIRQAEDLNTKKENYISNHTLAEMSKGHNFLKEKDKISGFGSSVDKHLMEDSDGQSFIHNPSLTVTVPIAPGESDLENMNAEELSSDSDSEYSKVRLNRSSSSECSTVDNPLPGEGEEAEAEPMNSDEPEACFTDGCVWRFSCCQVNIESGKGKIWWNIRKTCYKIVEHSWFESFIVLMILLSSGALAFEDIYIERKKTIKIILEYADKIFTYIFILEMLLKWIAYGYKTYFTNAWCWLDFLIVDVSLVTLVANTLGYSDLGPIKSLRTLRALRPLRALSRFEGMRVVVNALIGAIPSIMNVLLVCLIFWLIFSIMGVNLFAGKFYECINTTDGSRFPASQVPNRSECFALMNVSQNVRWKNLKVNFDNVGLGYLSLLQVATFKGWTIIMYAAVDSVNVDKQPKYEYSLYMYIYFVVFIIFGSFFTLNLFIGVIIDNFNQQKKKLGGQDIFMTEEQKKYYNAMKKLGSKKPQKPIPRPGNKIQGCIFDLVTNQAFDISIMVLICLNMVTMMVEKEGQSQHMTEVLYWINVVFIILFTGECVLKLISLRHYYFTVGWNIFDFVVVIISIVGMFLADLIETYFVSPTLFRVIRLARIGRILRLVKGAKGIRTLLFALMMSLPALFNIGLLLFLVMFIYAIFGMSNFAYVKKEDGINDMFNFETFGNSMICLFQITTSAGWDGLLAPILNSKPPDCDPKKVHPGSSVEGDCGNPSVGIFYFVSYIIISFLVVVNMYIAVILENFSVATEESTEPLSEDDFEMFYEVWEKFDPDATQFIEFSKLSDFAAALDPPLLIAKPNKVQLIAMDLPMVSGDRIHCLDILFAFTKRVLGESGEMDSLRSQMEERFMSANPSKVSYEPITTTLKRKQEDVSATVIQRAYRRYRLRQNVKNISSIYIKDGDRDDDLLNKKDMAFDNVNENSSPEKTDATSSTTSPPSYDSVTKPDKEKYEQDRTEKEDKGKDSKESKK
T1 sequence (Q07699 whole entry partner, looked up): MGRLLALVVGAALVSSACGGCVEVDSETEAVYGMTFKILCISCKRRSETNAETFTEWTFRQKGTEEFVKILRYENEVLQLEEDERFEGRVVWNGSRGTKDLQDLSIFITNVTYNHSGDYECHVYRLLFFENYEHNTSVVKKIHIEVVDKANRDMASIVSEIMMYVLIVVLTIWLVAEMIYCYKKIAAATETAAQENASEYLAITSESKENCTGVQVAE

Compound	IC50 (hNav1.7 [1]; [3]) [nM]	IC50 (hNav1.7 [2]; [4]) [nM]	IC50 (hNav1.7 [1]) [nM]	IC50 (hNav1.7 [2]) [nM]
COC12CC3CC(C1)C(Oc1cc(F)c(C(=O)NS(C)(=O)=O)cc1Cl)C(C3)C2 (centres unmarked)	730	610	–	–
O=C(NS(=O)(=O)C1CC1)c1cc(C2CC2)c(OC2CCC3(CCCCC3)CC2)cc1F	4	61	–	–
CC1(C)CCCC(Oc2cc(F)c(C(=O)NS(=O)(=O)C3CC3)cc2C2CC2)C1 (centres unmarked)	6	53	–	–
O=C(NS(=O)(=O)N1CCC1)c1cc(C2CC2)c(O[C@H]2C3CC4CC2C[C@@](Cl)(C4)C3)cc1F	10	94	–	–
CS(=O)(=O)NC(=O)c1cc(C2CC2)c(O[C@H]2C3CC4CC2C[C@@](Cl)(C4)C3)cc1F	9	7	–	–
O=C(NS(=O)(=O)C1CC1)c1cc(C2CC2(F)F)c(OCC23CC4CC(CC(C4)C2)C3)cc1F (centres unmarked)	4	140	–	–
CNS(=O)(=O)NC(=O)c1cc(C2CC2)c(OCC2CN(C(c3ccccc3)c3ccccc3)C2)cc1F	34	600	–	–
O=C(NS(=O)(=O)N1CC(F)C1)c1cc(C2CC2)c(O[C@H]2C3CC4CC2C[C@](Cl)(C4)C3)cc1F	20	1200	–	–
O=C(NS(=O)(=O)N1CC(F)C1)c1cc(C2CC2)c(O[C@H]2C3CC4CC2C[C@@](Cl)(C4)C3)cc1F	28	890	–	–
CC1CCCC(C)C1COc1cc(F)c(C(=O)NS(=O)(=O)N2CCC2)cc1C1CC1 (centres unmarked)	60	390	–	–
CC1CCCC(C)C1COc1cc(F)c(C(=O)NS(=O)(=O)N2CCC2)cc1Cl (centres unmarked)	25	74	–	–
O=C(NS(=O)(=O)N1CCC1)c1cc(C2CC2)c(OCC2CC=C(C3CC3)CC2)cc1F (centres unmarked)	6	10	–	–
CC1(COc2cc(F)c(C(=O)NS(=O)(=O)N3CCC3)cc2C2CC2)CCC2(CC1)CC2(F)F (centres unmarked)	11	47	–	–
O=C(NS(=O)(=O)CCO)c1cc(C2CC2)c(OCC23CC4CC(CC(C4)C2)C3)cc1F	7	4.6	–	–
CN(C)S(=O)(=O)NC(=O)c1cc(Cl)c(OCC23CC4CC(CC(Cl)(C4)C2)C3)cc1F	160	85.4	–	–
CN(C)S(=O)(=O)NC(=O)c1cc(Cl)c(OCC2(C(F)(F)F)CCC2)cc1F	294	41.6	–	–

Compound	IC50 (hNav1.7 [1]; [3]) [nM]	IC50 (hNav1.7 [2]; [4]) [nM]	IC50 (hNav1.7 [1]) [nM]	IC50 (hNav1.7 [2]) [nM]
5-chloro-4-(cyclohexylmethoxy)-2-fluoro-N-(methylsulfonyl)benzamide [Example 21]	1060	107	–	–
O=C(NS(=O)(=O)C1CC1)c1cc(C2CC2)c(OCC2CN(C(c3ccccc3)c3ccccc3)C2)cc1F (single isomer, unassigned)	5	82	–	–
CC12CC3CC(C)(C1)CC(COc1cc(F)c(C(=O)NS(C)(=O)=O)cc1Cl)(C3)C2 [Example 23]	13	22.9	–	–
CC1(C)[C@@H]2CC[C@@]1(C)[C@@H](Oc1cc(F)c(C(=O)NS(C)(=O)=O)cc1Cl)C2 [Example 25]	220	27	–	–
CC1(C)CCC(COc2cc(F)c(C(=O)NS(=O)(=O)N3CCC3)cc2C2CC2)CC1 [Example 309]	–	–	6	79
COCCS(=O)(=O)NC(=O)c1cc(C2CC2)c(OCC23CCCCC2C3(F)F)cc1F (centres unmarked) [Example 311]	30	53	–	–
O=C(NS(=O)(=O)N1CCC1)c1cc(C2CC2)c(COC23CC4CC(CC(C4)C2)C3)cc1F [Example 320]	17	140	–	–
CS(=O)(=O)NC(=O)c1cc(F)c(OCC23CC4CC(CC(C4)C2)C3)c(Cl)c1 [Example 325]	270	2500	–	–
O=C(NS(=O)(=O)C1CC1)c1cc(Cl)c(OCC2(C(F)(F)F)CCC2)cc1F [Example 328]	24	70	–	–
O=C(NS(=O)(=O)N1CCC1)c1cc(C2CC2)c(OCC2(C(F)(F)F)CCC2)cc1F [Example 329]	4	20	–	–
O=C(NS(=O)(=O)N1CCC1)c1cc(Cl)c(OCC2(C(F)(F)F)CCC2)cc1F [Example 330]	25	91	–	–
CC1(F)CCC(COc2cc(F)c(C(=O)NS(=O)(=O)N3CCC3)cc2Cl)CC1 (centres unmarked) [Example 331]	450	710	–	–
O=C(NS(=O)(=O)C1CC1)c1cc(C2CC2)c(OC2C3CC4CC(C3)CC2C4)cc1F (centres unmarked) [Example 332]	4	27	–	–
COC(=O)C12CC3C[C@H](C1)C(Oc1cc(F)c(C(=O)NS(C)(=O)=O)cc1Cl)[C@@H](C3)C2 (stereo partly drawn) [Example 353, (1s,3R,4r,5S,7s)-methyl 4-(2-chloro-5-fluoro-4-((methyl-sulfonyl)carbamoyl)-phenoxy)adamantane-1-carboxylate]	130	240	–	–
CC1(C)CCCC(Oc2cc(F)c(C(=O)NS(=O)(=O)N3CCC3)cc2C2CC2)C1 (centres unmarked) [Example 357]	16	120	–	–

Now from value to compound, other results behind:

IC50 (hNav1.7 [1]; [3]) [nM]	IC50 (hNav1.7 [2]; [4]) [nM]	Compound	IC50 (hNav1.7 [1]) [nM]	IC50 (hNav1.7 [2]) [nM]
15	34	O=C(NS(=O)(=O)N1CCC1)c1cc(C2CC2)c(OCC2CCC3C(C2)C3(F)F)cc1F (centres unmarked)	–	–
4	24	O=C(NS(=O)(=O)C1CC1)c1cc(C2CC2)c(O[C@H]2C3CC4CC2C[C@@](Cl)(C4)C3)cc1F	–	–
44	120	O=C(NS(=O)(=O)N1CCC1)c1cc(C2CC2)c(OC2CCC(Cl)(Cl)CC2)cc1F	–	–
7	120	CS(=O)(=O)NC(=O)c1cc(C2CC2)c(OC2CCC3(CCCCC3)CC2)cc1F	–	–
6.3	220	O=C(NS(=O)(=O)N1CCC1)c1cc(C2CC2)c(OC2CCC3(CCCCC3)CC2)cc1F	–	–
23	67	CC1(F)CCC(COc2cc(F)c(C(=O)NS(=O)(=O)N3CCC3)cc2C2CC2)CC1 (centres unmarked) [listing 1 of 2 here]	–	–
4	300	O=C(NS(=O)(=O)N1CCC1)c1cc(C2CC2)c(OCC2CCC3(CCC3)CC2)cc1F	–	–
21	24	O=C(NS(=O)(=O)N1CCC1)c1cc(C2CC2)c(O[C@H]2C3CC4CC2C[C@@](F)(C4)C3)cc1F	–	–
130	1300	CS(=O)(=O)NC(=O)c1cc(Cl)c(OCC2CC=CCC2)cc1F (centres unmarked)	–	–
5	340	O=C(NS(=O)(=O)N1CCC1)c1cc(C2CC2(F)F)c(OCC23CC4CC(CC(C4)C2)C3)cc1F (centres unmarked)	–	–
22	35	CC1(F)CCC(COc2cc(F)c(C(=O)NS(=O)(=O)N3CCC3)cc2C2CC2)CC1 (centres unmarked) [listing 2 of 2 here]	–	–
9	2	CS(=O)(=O)NC(=O)c1cc(C2CC2)c(OCC2CCC3CC3C2)cc1F (centres unmarked)	–	–
11	520	O=C(NS(=O)(=O)N1CC(F)C1)c1cc(C2CC2)c(OCC2CCC3CC3C2)cc1F (centres unmarked)	–	–
22	43	O=C(NS(=O)(=O)N1CCC1)c1cc(C2CC2)c(OCC2CCCC(F)(F)C2)cc1F (centres unmarked)	–	–
66	930	CNS(=O)(=O)NC(=O)c1cc(C2CC2)c(OCC2CCCC(F)(F)C2)cc1F (centres unmarked)	–	–
27	420	CS(=O)(=O)NC(=O)c1cc(C2CC2)c(OCC2CCCC(F)(F)C2)cc1F (centres unmarked)	–	–
3	23	CCS(=O)(=O)NC(=O)c1cc(C2CC2)c(OCC2CCC3(CC2)CC3)cc1F	–	–

IC50 (hNav1.7 [1]; [3]) [nM]	IC50 (hNav1.7 [2]; [4]) [nM]	Compound	IC50 (hNav1.7 [1]) [nM]	IC50 (hNav1.7 [2]) [nM]
8	28	CC1CCC(COc2cc(F)c(C(=O)NS(C)(=O)=O)cc2C2CC2)CC1 (centres unmarked)	–	–
100	190	CO[C@]12CC3CC(C1)[C@@H](Oc1cc(F)c(C(=O)NS(=O)(=O)N4CCC4)cc1C1CC1)C(C3)C2	–	–
5	12	CC1(COc2cc(F)c(C(=O)NS(=O)(=O)C3CC3)cc2C2CC2)CC=CCC1 (centres unmarked)	–	–
4	59	CC1(COc2cc(F)c(C(=O)NS(C)(=O)=O)cc2C2CC2)CCC(C(F)(F)F)CC1 (centres unmarked)	–	–
5	3.3	CCc1cc(C(=O)NS(=O)(=O)N2CCC2)c(F)cc1OCC12CC3CC(CC(C3)C1)C2	–	–
5	9	4-(adamantan-1-ylmethoxy)-N-(azetidin-1-ylsulfonyl)-3-chloro-5-fluorobenzamide [Example 416]	–	–
12	350	O=C(NS(=O)(=O)N1CCC1)c1cc(C2CC2)c(OCC2CN(C(c3ccccc3)c3ccccc3)C2)cc1F (racemic)	–	–
1400	146	CC(Oc1cc(F)c(C(=O)NS(C)(=O)=O)cc1Cl)C12CC3CC(CC(C3)C1)C2 (centres unmarked) [Example 31]	–	–
180	140	O=C(NS(=O)(=O)C1CC1)c1cc(Cl)c(OC2CCC(Cl)(Cl)CC2)cc1F [Example 293]	–	–
14	360	CO[C@@H]1CCN(S(=O)(=O)NC(=O)c2cc(C3CC3)c(OCC34CC5CC(CC(C5)C3)C4)cc2F)C1 [Example 301]	–	–
310	1400	CC1(OCc2cc(F)c(C(=O)NS(C)(=O)=O)cc2Cl)CCC(F)(F)CC1 [Example 305]	–	–
20	180	CS(=O)(=O)NC(=O)c1cc(C2CC2)c(O[C@H]2C3CC4CC2C[C@](F)(C4)C3)cc1F [Example 308]	–	–
84	10	CS(=O)(=O)NC(=O)c1cc(C2CC2)c(OCC23CCCCC2C3(F)F)cc1F (centres unmarked) [Example 310]	–	–
3	12	O=C(NS(=O)(=O)C1CC1)c1cc(C2CC2)c(OCC2(C(F)(F)F)CCC2)cc1F [Example 327]	–	–
310	3300	O=C(NS(=O)(=O)C1CC1)c1cc(Cl)c(OC2CCC(F)(F)CC2)cc1F [Example 339]	–	–
14	67	O=C(NS(=O)(=O)N1CCC1)c1cc(C2CC2)c(OCC2CC23CCCCC3)cc1F (centres unmarked) [Example 347]	–	–
